Source: BindingDB's records for patent US20230339939 (Bayer Aktiengesellschaft, 2023)

Columns and labels:
[1] = biological target: T1, Casein kinase I isoform alpha (Homo sapiens, UniProt P48729); assay: CSNK1A1 Inhibitory activity Assay 2
Source text: (§1) Recombinant fusion protein of N-terminal Glutathion-S-Transferase (GST) and full-length human CSNK1A1, expressed by baculovirus infected insect cells and purified via Glutathion affinity chromatography, was purchased from Life Technologies (product no. PV4174) and used as enzyme. As substrate for the kinase reaction the biotinylated peptide biotin-Ahx-KRRRAL-pS-VASLPGL (C-terminus in amide form) was used which can be purchased e.g. from the company Biosyntan (Berlin-Buch, Germany). For the assay 50 nl of a 100 fold concentrated solution of the test compound in DMSO was pipetted into a white low volume 384-well microtiter plate (Greiner Bio-One, Frickenhausen, Germany), 2 μL of a solution of CSNK1A1 in aqueous assay buffer [50 mM HEPES pH 7.5, 10% (v/v) glycerol, 10 mM MgCl2, 50 mM NaCl, 1 mM dithiothreitol, 0.01% (w/v) bovine serum albumin, 0.01% (v/v) Triton X-100] were added and the mixture was incubated for 15 min at 22 C. to allow pre-binding of the test compounds to the enzyme before the start of the kinase reaction. […] Subsequently 2.5 μL of the kinase detection reagent (1.2 fold more concentrated than recommended by the producer) were added, the resulting mixture was incubated at 22 C. for 1 h and then the luminescence measured with a suitable measurement instrument (e.g. Viewlux from Perkin-Elmer).

[2] = biological target: Casein kinase I isoform delta (Homo sapiens, UniProt P48730); assay: CSNK1D-Inhibitory Activity Assay
Sequence of Casein kinase I isoform delta (P48730 whole entry, canonical isoform): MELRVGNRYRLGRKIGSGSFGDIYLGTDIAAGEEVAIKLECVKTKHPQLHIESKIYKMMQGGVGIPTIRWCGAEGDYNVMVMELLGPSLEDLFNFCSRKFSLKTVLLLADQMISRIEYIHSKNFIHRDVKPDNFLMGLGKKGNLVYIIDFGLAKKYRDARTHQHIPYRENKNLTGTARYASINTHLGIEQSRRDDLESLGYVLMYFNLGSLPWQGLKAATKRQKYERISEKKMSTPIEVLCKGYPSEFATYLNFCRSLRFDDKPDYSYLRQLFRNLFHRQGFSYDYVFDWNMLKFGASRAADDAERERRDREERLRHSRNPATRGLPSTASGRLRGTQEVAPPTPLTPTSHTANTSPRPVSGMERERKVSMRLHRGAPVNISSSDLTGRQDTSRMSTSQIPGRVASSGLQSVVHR
Procedure: as §1, with “CSNK1D,” for “CSNK1A1,”, “PV3665)” for “PV4174)”, “Btn-Ahx-[…]” for “biotin-Ahx-KRRRAL-pS-VASLPGL”, “1536-well” for “low volume 384-well”, “CSNK1D” for “CSNK1A1”

[3] = biological target: T1, Casein kinase I isoform alpha; assay: CSNK1A1 High ATP Assay
Source text: as §1

[4] = biological target: Epidermal growth factor receptor (Homo sapiens, UniProt P00533); assay: WT-EGFR Kinase Assay
Sequence of Epidermal growth factor receptor (P00533 whole entry): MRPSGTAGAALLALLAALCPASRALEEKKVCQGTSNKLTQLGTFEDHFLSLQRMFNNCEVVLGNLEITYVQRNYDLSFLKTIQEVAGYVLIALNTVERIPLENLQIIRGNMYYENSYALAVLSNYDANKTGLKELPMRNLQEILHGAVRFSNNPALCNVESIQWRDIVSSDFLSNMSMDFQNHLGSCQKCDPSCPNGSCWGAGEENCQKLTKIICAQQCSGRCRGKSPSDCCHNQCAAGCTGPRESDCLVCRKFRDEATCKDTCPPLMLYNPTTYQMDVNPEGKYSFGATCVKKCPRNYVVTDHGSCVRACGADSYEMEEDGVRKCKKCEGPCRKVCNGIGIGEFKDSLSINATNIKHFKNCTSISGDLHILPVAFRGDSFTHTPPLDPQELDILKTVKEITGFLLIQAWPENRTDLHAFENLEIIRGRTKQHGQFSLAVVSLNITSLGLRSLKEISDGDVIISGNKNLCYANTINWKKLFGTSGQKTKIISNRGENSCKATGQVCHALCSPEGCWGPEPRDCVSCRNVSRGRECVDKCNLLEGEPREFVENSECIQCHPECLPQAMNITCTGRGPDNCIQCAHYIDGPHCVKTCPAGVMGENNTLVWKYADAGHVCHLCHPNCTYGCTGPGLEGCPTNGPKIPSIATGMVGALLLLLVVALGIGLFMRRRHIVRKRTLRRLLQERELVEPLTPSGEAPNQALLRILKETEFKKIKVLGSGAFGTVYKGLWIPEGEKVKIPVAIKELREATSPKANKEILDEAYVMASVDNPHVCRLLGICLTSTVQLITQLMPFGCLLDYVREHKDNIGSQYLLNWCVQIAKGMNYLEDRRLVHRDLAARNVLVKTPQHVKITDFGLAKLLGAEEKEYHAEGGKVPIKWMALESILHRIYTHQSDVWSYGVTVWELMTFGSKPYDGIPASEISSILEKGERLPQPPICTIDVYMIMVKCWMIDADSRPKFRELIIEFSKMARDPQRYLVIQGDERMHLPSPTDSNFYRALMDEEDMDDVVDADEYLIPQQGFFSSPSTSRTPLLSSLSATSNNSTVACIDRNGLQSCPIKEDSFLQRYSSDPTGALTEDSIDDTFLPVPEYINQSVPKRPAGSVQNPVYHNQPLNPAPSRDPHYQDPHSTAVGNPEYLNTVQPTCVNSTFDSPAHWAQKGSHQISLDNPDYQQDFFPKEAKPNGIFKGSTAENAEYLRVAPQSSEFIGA
Procedure: For the assay 50 nl of a 100 fold concentrated solution of the test compound in DMSO was pipetted into either a black low volume 384 well microtiter plate or a black 1536 well microtiter plate (both Greiner Bio-One, Frickenhausen, Germany), 2 μL of a solution of EGFR in aqueous assay buffer [50 mM Hepes pH 7.0, 10 mM MgCl2, 1 mM dithiothreitol, 0.5 mM EGTA, 0.3 mM activated sodium ortho-vanadate, 0.005% (w/v) bovine serum albumin, 0.005% (v/v) Tween-20] were added and the mixture was incubated for 15 min at 22° C. to allow pre-binding of the test compounds to the enzyme before the start of the kinase reaction. […] The concentration of EGFR was adjusted depending of the activity of the enzyme lot and was chosen appropriate to have the assay in the linear range, typical concentration was 7.6 pg/μL. The reaction was stopped by the addition of 3 μL of a solution of HTRF detection reagents (83.3 nM streptavidine-XL665 [Cisbio Bioassays, Codolet, France] and 1.67 nM PT66-Tb-Cryptate, a terbium-cryptate labelled anti-phospho-tyrosine antibody from Cisbio Bioassays [instead of the PT66-Tb-cryptate PT66-Eu-Chelate from Perkin Elmer can also be used]) in an aqueous EDTA-solution (133.3 mM EDTA, 0.2% (w/v) bovine serum albumin in 50 mM HEPES pH 7.5). […]

T1 sequence (P48729 whole entry, the tested form may be a part, canonical isoform): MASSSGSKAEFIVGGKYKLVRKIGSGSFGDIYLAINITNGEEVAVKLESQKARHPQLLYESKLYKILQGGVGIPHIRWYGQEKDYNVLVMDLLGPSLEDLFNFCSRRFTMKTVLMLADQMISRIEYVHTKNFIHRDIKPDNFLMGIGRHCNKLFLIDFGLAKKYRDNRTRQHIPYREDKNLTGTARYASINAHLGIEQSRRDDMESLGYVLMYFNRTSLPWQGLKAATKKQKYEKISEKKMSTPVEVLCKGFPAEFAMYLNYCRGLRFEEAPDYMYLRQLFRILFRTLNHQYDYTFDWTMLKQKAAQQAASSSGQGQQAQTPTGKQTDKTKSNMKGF

Row | SMILES | IC50 [1] [nM] | IC50 [2] [nM] | IC50 [3] [nM] | IC50 [4] [nM]
1 | CC(C)C(C(=O)Nc1cc(-c2[nH]c3ccc(F)nc3c2-c2ccccn2)ccn1)c1ccc(F)cc1 (single isomer, unassigned) [US20230339939, Example 24] | 4.79 | 10.4 | 43 | 
2 | O=C(Cc1ccc(F)cc1)Nc1cc(-c2[nH]c3c(CC4CC4)cc(F)nc3c2-c2ccccn2)ccn1 [US20230339939, Example 37] | 4 | 5.76 | 9.53 | > 20000
